Test results as given in patent publication US9545367B2, “Cosmetic use of N-heteroarylbisamide analogs and related compounds” (Avon Products, Inc., priority 2011, dated 2017).

Assays:
Type in all cases: cell-based, human
explanted skin tissue = test: Skin explant assay, hematoxylin and eosin histology; conditions: skin explants, 0.025 weight percent, administered days 0, 1, 2, 5, 7; nine days in culture; vs vehicle control; FIG. 1B
Description: (§1) Samples of explanted skin tissue were obtained from an abdominal plasty of a person. Samples (33 samples in total) were maintained in tissue culture medium at 37° C. in a humid, 5%-CO2 atmosphere for the duration of the study.
(§2) The skin tissue explants were then distributed into appropriate controls or treated samples in triplicates. The controls received only a vehicle, and the treatment samples received 0.025 weight percent of Analog A disclosed above. The vehicle and Analog A were administered to the controls and treatment samples, respectively, on days 0, 1, 2, 5, and 7.
(§3) After nine days in culture the vehicle and Analog A treated samples were collected and processed for histology and immunostaining Initially, the samples were fixed in buffered formalin for 24 hours. […] Tissue samples were also stained for procollagen I using a Procollagen I rat monoclonal antibody with streptavidin alkaline phosphatase conjugate (Vectastain, Vector labs) and Vector® blue substrate detection system (Vector Laboratories LTD., Peterborough, UK), and hyaluronic acid using biotinylated affinity purified Hyaluronic Acid Binding Protein ((bovine nasal cartilage) Calbiochem, EMD Chemicals USA) and detected using the aforementioned detection system […]

Procollagen 1 = test: Skin explant assay, procollagen I immunostaining; conditions: skin explants, 0.025 weight percent, nine days in culture; FIGS. 3A and 3B
Description: as §1, §2, §3

Hyaluronic Acid = test: Skin explant assay, Hyaluronic Acid Binding Protein staining; conditions: skin explants, 0.025 weight percent, nine days in culture; FIGS. 2A and 2B
Description: as §1, §2, §3

- expression of Hyaluronic Acid in comparison to the vehicle control (Hyaluronic Acid): increased
SMILES: Cc1cccc(-n2nc(C(C)(C)C)cc2NC(=O)CCCC(=O)NC(C)C(C)C)c1 (stereo not shown) [Analog A]
- cell density throughout the basal epidermis (hematoxylin and eosin stain) (explanted skin tissue): maintained their cell density throughout the basal epidermis
- contact with the basal layer (hematoxylin and eosin stain) (explanted skin tissue): good contact with the basal layer
- expression of Procollagen 1 in comparison to the vehicle control (Procollagen 1): increased
